Reference: patent publication US11702414B2, “Thiadiazole IRAK4 inhibitors” (Gilead Sciences, Inc., priority 2018, dated 2023)
Read-outs that look alike come from different tables or passages of the source.

Experiments:
TNFα = test: IRAK4 Monocyte TNFα Cell Based Assay; set-up: species or system human; settings: Homo sapiens, Monocyte, human monocytes
Method: IRAK4 Monocyte TNFα Cell Based Assay Procedure:
The cell suspension was then plated at a density of 5,000 cells/well onto black 384 well Greiner clear bottom plates. Plates were pre-spotted with test compounds and serially diluted in DMSO where 40 nL/well were delivered using the Echo 550 acoustic liquid dispenser (Labcyte®) for a final DMSO concentration of 0.1%. Plated cells were treated with compound for 1 hour at 37° C. Cells were then stimulated with 50 pg/ml of LPS (Sigma) excluding outside columns of plate used for unstimulated cell control wells. Cells were incubated for an additional 4 hours at 37° C. Cells were then spun out of the media and 5μl of sample were taken and analyzed for total TNFα content using the TR-FRET Human TNFα detection system (CisBio). This system utilizes two labeled antibodies (cryptate and XL665) that bind to two different epitopes of the TNFα molecule and produce FRET signal proportional to the concentration of TNFα in the sample. Detection antibodies are mixed 50:50 and 5 μL were dispensed into each well. Plates were covered with clear seals and incubated at room temp overnight. […] Percent of control was calculated as follows: % Control=100×(RatioSample−Ratio0% Stimulation)/(Ratio100% Stimulation−Ratio0% Stimulation) where unstimulated cells (0% stimulation) were the negative control and stimulated cells (100% stimulation) were used as the positive control.

IRAK4 enzyme = IRAK4 enzyme (Homo sapiens (Human), UniProt Q9NWZ3); test: IRAK4 Biochemical Assay (TR-FRET, STK1 KinEASE)
Method: IRAK4 enzyme (Carna Biosciences, Chuo-ku, Kobe, Japan) activity was measured by detecting phosphorylated peptide substrate formation using an antibody against the phosphorylated peptide substrate. This is a time-resolved fluorescence resonance energy transfer (TR-FRET) immunoassay, based on the STK1 KinEASE Assay (Cisbio, Bedford, Mass.). The assay was designed as a simple two-step, endpoint assay (a 5 μl enzyme reaction followed by 5 μl stop and detect Solution) performed in ProxiPlate-384 Plus plates (Perkin Elmer, Waltham, Mass.). […] Compounds diluted in DMSO were spotted into 384 well plates using a Labcyte® Echo 550 Liquid Handling System prior to addition of IRAK4 enzyme and peptide substrate. Reaction solutions were delivered using a Multi-Flo (Bio-Tek Instruments). The enzyme and peptide solution was incubated with compound for 15 minutes at room temp before the reaction was initiated by the addition of ATP. The standard 5 μl reaction mixture contained 500 μM ATP, 2 μM peptide (STK1 Peptide), 0.75 nM of IRAK4 in reaction buffer (50 mM HEPES, pH 7.0, 0.02% NaN3, 0.01% BSA, 0.1 mM Orthovanadate, 5 mM MgCl2, 0.025% NP-40, 1 mM DTT). After 120 min of incubation at room temperature, 5 μl of Stop and Detect Solution (1:100 Cryptate labeled anti-phosphorylated peptide antibody solution and 125 nM Tracer in a 50 mM HEPES pH 7.0 detection buffer containing sufficient EDTA) was added. The plate was then further incubated for 60 minutes at room temperature and read on Envision 2103 Multilabeled reader (PerkinElmer) with excitation/emission/FRET emission at 340 nm/615 nm/665 nm, respectively. Fluorescence intensities at 615 nm and 665 nm emission wavelengths were expressed as a ratio (665 nm/615 nm). Percentage of inhibition was calculated as below: % Inhibition=100×(RatioSample−Ratio0% Inhibition)/(Ratio100% Inhibition−Ratio0% Inhibition)
The 0% inhibition value comes from control wells lacking inhibitor.

[1] = second part of Table 2 (compounds 33-343), unit inferred, read-out: EC50MONO TNF HTRF

Sequence of IRAK4 enzyme (Q9NWZ3 whole entry): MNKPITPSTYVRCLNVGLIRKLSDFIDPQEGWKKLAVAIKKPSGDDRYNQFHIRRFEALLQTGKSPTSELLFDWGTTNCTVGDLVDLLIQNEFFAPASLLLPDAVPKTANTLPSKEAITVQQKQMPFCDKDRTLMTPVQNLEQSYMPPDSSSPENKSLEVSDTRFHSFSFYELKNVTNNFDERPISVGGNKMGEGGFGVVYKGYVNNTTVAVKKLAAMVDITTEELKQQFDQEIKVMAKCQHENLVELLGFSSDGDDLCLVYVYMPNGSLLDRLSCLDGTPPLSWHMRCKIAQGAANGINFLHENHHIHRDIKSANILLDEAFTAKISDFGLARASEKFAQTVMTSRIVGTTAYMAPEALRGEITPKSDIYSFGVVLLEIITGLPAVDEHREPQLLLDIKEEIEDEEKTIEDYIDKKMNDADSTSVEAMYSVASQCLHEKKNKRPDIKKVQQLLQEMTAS

Which EC50 (TNFα; [1]) does the source give for `CC(=O)NC12CCC(c3nnc(-c4cnc(-c5ccc6cc(C#N)cnn56)cc4NC4COC4)s3)(C1)C2` [Compound 334, N-(4-(5-(6-(3-cyanopyrrolo[1,2-b]pyridazin-7-yl)-4-(oxetan-3-ylamino)pyridin-3-yl)-1,3,4-thiadiazol-2-yl)bicyclo[2.1.1]hexan-1-yl)acetamide] here?
Its EC50 is 98.9 nM.

What about the IC50 (IRAK4 enzyme) of the same compound?
The IC50 was 2.41 nM.

`CC(C)(O)C(=O)NC12CCC(c3nnc(-c4cnc(-c5ccc6cc(C#N)cnn56)cc4NC4COC4)s3)(C1)C2` [Compound 335, N-(4-(5-(6-(3-cyanopyrrolo[1,2-b]pyridazin-7-yl)-4-(oxetan-3-ylamino)pyridin-3-yl)-1,3,4-thiadiazol-2-yl)bicyclo[2.1.1]hexan-1-yl)-2-hydroxy-2-methylpropanamide] was tested. Which EC50 (TNFα; [1]) did it give?
Its EC50 is 48.9 nM.

What about the IC50 (IRAK4 enzyme) of the same compound?
The IC50 was 0.64 nM.

Which results are given for `CC(C)Nc1cc(-c2ccc3cc(C#N)cnn23)ncc1-c1nnc(C2CCOCC2)s1` [Example 32, 7-(4-(isopropylamino)-5-(5-(tetrahydro-2H-pyran-4-yl)-1,3,4-thiadiazol-2-yl)pyridin-2-yl)pyrrolo[1,2-b]pyridazine-3-carbonitrile]?
EC50 (TNFα; LPS-stimulated, compounds 1-32, read-out: EC50 TNF): 211 nM; IC50 (IRAK4 enzyme; compounds 1-32, read-out: IC50 HTRF): < 1 nM

`CC(=O)NC[C@H]1CCCN1C(=O)c1nnc(-c2cnc(-c3ccc4cc(C#N)cnn34)cc2NC(C)C)s1` [Example 42, (R)-N-((1-(5-(6-(3-cyanopyrrolo[1,2-b]pyridazin-7-yl)-4-(isopropylamino)pyridin-3-yl)-1,3,4-thiadiazole-2-carbonyl)pyrrolidin-2-yl)methyl)acetamide] was tested. Which EC50 (TNFα; [1]) did it give?
The EC50 was 35.7 nM.

What about the IC50 (IRAK4 enzyme) of the same compound?
The IC50 was 1.5 nM.

For `COC(=O)N[C@H]1CCN(C(=O)c2nnc(-c3cnc(-c4ccc5cc(C#N)cnn45)cc3NC(C)C)s2)C1` [Example 43, methyl (S)-(1-(5-(6-(3-cyanopyrrolo[1,2-b]pyridazin-7-yl)-4-(isopropylamino)pyridin-3-yl)-1,3,4-thiadiazole-2-carbonyl)pyrrolidin-3-yl)carbamate], which EC50 (TNFα; [1]) is on record?
The EC50 was 21.9 nM.

And the IC50 (IRAK4 enzyme)?
Its IC50 is 0.72 nM.

How did the EC50 (TNFα; [1]) turn out when `CC(C)Nc1cc(-c2ccc3cc(C#N)cnn23)ncc1-c1nnc(C(=O)N2CC[C@@H](NC(=O)C3CC3)C2)s1` [Example 47, (R)-N-(1-(5-(6-(3-cyanopyrrolo[1,2-b]pyridazin-7-yl)-4-(isopropylamino)pyridin-3-yl)-1,3,4-thiadiazole-2-carbonyl)pyrrolidin-3-yl)cyclopropanecarboxamide] was run?
Its EC50 is 5680 nM.

What about the IC50 (IRAK4 enzyme) of the same compound?
The IC50 was 1.42 nM.

Which EC50 (TNFα; [1]) does the source give for `CC(=O)N1CCC2(CC1)CN(c1nnc(-c3cnc(-c4ccc5cc(C#N)cnn45)cc3NC(C)C)s1)C2` [Example 67, 7-(5-(5-(7-acetyl-2,7-diazaspiro[3.5]nonan-2-yl)-1,3,4-thiadiazol-2-yl)-4-(isopropylamino)pyridin-2-yl)pyrrolo[1,2-b]pyridazine-3-carbonitrile] here?
The EC50 was 10.4 nM.

What about the IC50 (IRAK4 enzyme) of the same compound?
The IC50 was 0.59 nM.

How did the EC50 (TNFα; [1]) turn out when `CC(=O)N[C@@H]1C[C@H]2C[C@@H]1CN2c1nnc(-c2cnc(-c3ccc4cc(C#N)cnn34)cc2NC(C)C)s1` [Example 73, N-((1R,4R,5R)-2-(5-(6-(3-cyanopyrrolo[1,2-b]pyridazin-7-yl)-4-(isopropylamino)pyridin-3-yl)-1,3,4-thiadiazol-2-yl)-2-azabicyclo[2.2.1]heptan-5-yl)acetamide] was run?
Its EC50 is 64.1 nM.

What about the IC50 (IRAK4 enzyme) of the same compound?
The IC50 was 0.61 nM.

How did the EC50 (TNFα; [1]) turn out when `CC(=O)N1CCC2(CC1)CN(c1nnc(-c3cnc(-c4ccc5cc(C#N)cnn45)cc3NC3COC3)s1)C2` [Example 75, 7-(5-(5-(7-acetyl-2,7-diazaspiro[3.5]nonan-2-yl)-1,3,4-thiadiazol-2-yl)-4-(oxetan-3-ylamino)pyridin-2-yl)pyrrolo[1,2-b]pyridazine-3-carbonitrile] was run?
Its EC50 is 3.2 nM.

And the IC50 (IRAK4 enzyme)?
The IC50 was 0.24 nM.

With `CC(=O)N1CCC2(CC1)CN(c1nnc(-c3cnc(-c4ccc5cc(C#N)cnn45)cc3NC3CCOCC3)s1)C2` [Example 76, 7-(5-(5-(7-acetyl-2,7-diazaspiro[3.5]nonan-2-yl)-1,3,4-thiadiazol-2-yl)-4-((tetrahydro-2H-pyran-4-yl)amino)pyridin-2-yl)pyrrolo[1,2-b]pyridazine-3-carbonitrile] as the compound, how does the EC50 (TNFα; [1]) read?
Its EC50 is 4.4 nM.

What about the IC50 (IRAK4 enzyme) of the same compound?
The IC50 was 0.85 nM.

Which EC50 (TNFα; [1]) does the source give for `CC(=O)NC1CCC2(CC1)CN(c1nnc(-c3cnc(-c4ccc5cc(C#N)cnn45)cc3N[C@H](C)C#N)s1)C2` [Example 77, (R)-N-(2-(5-(4-((1-cyanoethyl)amino)-6-(3-cyanopyrrolo[1,2-b]pyridazin-7-yl)pyridin-3-yl)-1,3,4-thiadiazol-2-yl)-2-azaspiro[3.5]nonan-7-yl)acetamide] here?
The EC50 was 3.9 nM.

And the IC50 (IRAK4 enzyme)?
Its IC50 is 1.06 nM.

For `CC(=O)NC1CCC2(CC1)CN(c1nnc(-c3cnc(-c4ccc5cc(C#N)cnn45)cc3NC3COC3)s1)C2` [Example 78, N-(2-(5-(6-(3-cyanopyrrolo[1,2-b]pyridazin-7-yl)-4-(oxetan-3-ylamino)pyridin-3-yl)-1,3,4-thiadiazol-2-yl)-2-azaspiro[3.5]nonan-7-yl)acetamide], which EC50 (TNFα; [1]) is on record?
Its EC50 is 8.9 nM.

And the IC50 (IRAK4 enzyme)?
Its IC50 is 0.85 nM.

`CC(C)Nc1cc(-c2ccc3cc(C#N)cnn23)ncc1-c1nnc(C(C)(C)O)s1` [Example 80, 7-(5-(5-(2-hydroxypropan-2-yl)-1,3,4-thiadiazol-2-yl)-4-(isopropylamino)pyridin-2-yl)pyrrolo[1,2-b]pyridazine-3-carbonitrile] was tested. Which EC50 (TNFα; [1]) did it give?
The EC50 was 114 nM.

And the IC50 (IRAK4 enzyme)?
The IC50 was 1.16 nM.

`CC(C)Nc1cc(-c2ccc3cc(C#N)cnn23)ncc1-c1nnc(N2CC3(CCC(C)(O)CC3)C2)s1` [Example 82, 7-(5-(5-(7-hydroxy-7-methyl-2-azaspiro[3.5]nonan-2-yl)-1,3,4-thiadiazol-2-yl)-4-(isopropylamino)pyridin-2-yl)pyrrolo[1,2-b]pyridazine-3-carbonitrile] was tested. Which EC50 (TNFα; [1]) did it give?
The EC50 was 23.1 nM.

What about the IC50 (IRAK4 enzyme) of the same compound?
Its IC50 is 1.18 nM.

`CC(=O)N[C@H]1CC[C@@H](c2nnc(-c3cnc(-c4ccc5cc(C#N)cnn45)cc3NC(C)C)s2)OC1` [Example 84, N-((3S,6S)-6-(5-(6-(3-cyanopyrrolo[1,2-b]pyridazin-7-yl)-4-(isopropylamino)pyridin-3-yl)-1,3,4-thiadiazol-2-yl)tetrahydro-2H-pyran-3-yl)acetamide] was tested. Which EC50 (TNFα; [1]) did it give?
Its EC50 is 8.6 nM.

What about the IC50 (IRAK4 enzyme) of the same compound?
Its IC50 is 0.47 nM.

With `CC(=O)NC1CCC2(CC1)CN(c1nnc(-c3cnc(-c4ccc5cc(C#N)cnn45)cc3NC3(C)COC3)s1)C2` [Example 99, N-(2-(5-(6-(3-cyanopyrrolo[1,2-b]pyridazin-7-yl)-4-((3-methyloxetan-3-yl)amino)pyridin-3-yl)-1,3,4-thiadiazol-2-yl)-2-azaspiro[3.5]nonan-7-yl)acetamide] as the compound, how does the EC50 (TNFα; [1]) read?
The EC50 was 5.8 nM.

And the IC50 (IRAK4 enzyme)?
Its IC50 is 0.63 nM.

For `CC(C)Nc1cc(-c2ccc3cc(C#N)cnn23)ncc1-c1nnc(C2CCN(C3COC3)CC2)s1` [Example 138, 7-(4-(isopropylamino)-5-(5-(1-(oxetan-3-yl)piperidin-4-yl)-1,3,4-thiadiazol-2-yl)pyridin-2-yl)pyrrolo[1,2-b]pyridazine-3-carbonitrile], which EC50 (TNFα; [1]) is on record?
The EC50 was 15 nM.

What about the IC50 (IRAK4 enzyme) of the same compound?
Its IC50 is 0.61 nM.

For `CC(C)Nc1cc(-c2ccc3cc(C#N)cnn23)ncc1-c1nnc(N2CC3CCC(C2)C3(O)C(F)(F)F)s1` (stereo not drawn) [Example 159, 7-(5-(5-(8-hydroxy-8-(trifluoromethyl)-3-azabicyclo[3.2.1]octan-3-yl)-1,3,4-thiadiazol-2-yl)-4-(isopropylamino)pyridin-2-yl)pyrrolo[1,2-b]pyridazine-3-carbonitrile], which EC50 (TNFα; [1]) is on record?
Its EC50 is 25.7 nM.

What about the IC50 (IRAK4 enzyme) of the same compound?
The IC50 was 6.38 nM.
